Measured values published in ChEMBL document CHEMBL3885861, “Open TG-GATES”.

Organism: Rattus norvegicus
Test: Open TG-GATES - Regimen: Daily Repeat
Type: toxicity, organism-based, Sprague-Dawley
Design: regimen Daily Repeat, gender Male, age 6 weeks
Conditions: in vivo, po, route gavage; for APTT / Bas / Eos / Fbg / Hb / Ht / Lym / MCH / MCHC / MCV / Mono / Neu / PT / Plat / RBC / Ret / WBC: tissue Blood; for KIDNEY_L / KIDNEY_R / KIDNEY_TOTAL: tissue Kidney; for LIVER: tissue Liver; for A/G / ALP / ALT / AST / BUN / CRE / Ca / Cl / DBIL / GLC / IP / K / LDH / Na / PL / RALB / TBIL / TC / TG / TP / gamma-GTP: tissue Plasma
[1] = 0 mg/kg, 72 h, dose level Control, time 3 day
[2] = 0 mg/kg, […], dose level Control, time 7 day
[3] = 0 mg/kg, […], dose level Control, time 14 day
[4] = 0 mg/kg, […], dose level Control, time 28 day
[5] = 10 mg/kg, 72 h, dose level Low, time 3 day
[6] = 10 mg/kg, […], dose level Low, time 7 day
[7] = 10 mg/kg, […], dose level Low, time 14 day
[8] = 10 mg/kg, […], dose level Low, time 28 day

## O=C1CN(/N=C/c2ccc([N+](=O)[O-])o2)C(=O)N1 [NITROFURANTOIN]
[1]
  TERMINAL_BW: 244.1 g
  APTT: 19.2 s
  Bas: 0%
  Eos: 1%
  Fbg: 219 mg/dL
  Hb: 13.7 g/dL
  Ht: 39.1%
  Lym: 80.6%
  MCH: 22 pg
  MCHC: 35.1%
  MCV: 62.8 fL
  Mono: 3%
  Neu: 13.8%
  PT: 12.3 s
  Plat: 134.3 x10_4/uL
  RBC: 622.8 x10_4/ul
  Ret: 6.3%
  WBC: 116.2 x10_2/uL
  KIDNEY_L: 1 g
  KIDNEY_R: 1.1 g
  KIDNEY_TOTAL: 2.1 g
  LIVER: 12.1 g
  A/G: 1.5
  ALP: 885 IU/L
  ALT: 35.6 IU/L
  AST: 68.6 IU/L
  BUN: 16.2 mg/dL
  CRE: 0.4 mg/dL
  Ca: 10.8 mg/dL
  Cl: 101 meq/L
  DBIL: 0.1 mg/dL
  GLC: 233.2 mg/dL
  IP: 7.2 mg/dL
  K: 3.7 meq/L
  LDH: 200.8 IU/L
  Na: 140 meq/L
  PL: 166.6 mg/dL
  RALB: 3.4 g/dL
  TBIL: 0.2 mg/dL
  TC: 77.6 mg/dL
  TG: 139.8 mg/dL
  TP: 5.6 g/dL
  gamma-GTP: 1 IU/L
[2]
  TERMINAL_BW: 274 g
  APTT: 19.9 s
  Bas: 0%
  Eos: 0.8%
  Fbg: 227.8 mg/dL
  Hb: 14.1 g/dL
  Ht: 40.2%
  Lym: 80.6%
  MCH: 21.5 pg
  MCHC: 35.2%
  MCV: 61.2 fL
  Mono: 2.6%
  Neu: 14.6%
  PT: 12.5 s
  Plat: 135 x10_4/uL
  RBC: 657.2 x10_4/ul
  Ret: 5.4%
  WBC: 123.7 x10_2/uL
  KIDNEY_L: 1.2 g
  KIDNEY_R: 1.2 g
  KIDNEY_TOTAL: 2.4 g
  LIVER: 13 g
  A/G: 1.5
  ALP: 943.4 IU/L
  ALT: 32.8 IU/L
  AST: 63.2 IU/L
  BUN: 16.4 mg/dL
  CRE: 0.4 mg/dL
  Ca: 10.8 mg/dL
  Cl: 101 meq/L
  DBIL: 0.1 mg/dL
  GLC: 192.8 mg/dL
  IP: 6.9 mg/dL
  K: 4.4 meq/L
  LDH: 238.6 IU/L
  Na: 139.8 meq/L
  PL: 166.8 mg/dL
  RALB: 3.5 g/dL
  TBIL: 0.2 mg/dL
  TC: 79.4 mg/dL
  TG: 141 mg/dL
  TP: 5.8 g/dL
  gamma-GTP: 0.6 IU/L
[3]
  TERMINAL_BW: 331.5 g
  APTT: 20.1 s
  Bas: 0%
  Eos: 0.6%
  Fbg: 227.4 mg/dL
  Hb: 14.6 g/dL
  Ht: 41.5%
  Lym: 77.4%
  MCH: 20.3 pg
  MCHC: 35.1%
  MCV: 57.7 fL
  Mono: 1.8%
  Neu: 18.8%
  PT: 12.3 s
  Plat: 117.4 x10_4/uL
  RBC: 718.6 x10_4/ul
  Ret: 4.4%
  WBC: 127.2 x10_2/uL
  KIDNEY_L: 1.3 g
  KIDNEY_R: 1.3 g
  KIDNEY_TOTAL: 2.6 g
  LIVER: 14.5 g
  A/G: 1.4
  ALP: 818 IU/L
  ALT: 34.4 IU/L
  AST: 60.6 IU/L
  BUN: 16.6 mg/dL
  CRE: 0.4 mg/dL
  Ca: 10.4 mg/dL
  Cl: 101.6 meq/L
  DBIL: 0.1 mg/dL
  GLC: 218.2 mg/dL
  IP: 6.7 mg/dL
  K: 3.7 meq/L
  LDH: 189.6 IU/L
  Na: 140 meq/L
  PL: 153.2 mg/dL
  RALB: 3.4 g/dL
  TBIL: 0.2 mg/dL
  TC: 66.4 mg/dL
  TG: 148.8 mg/dL
  TP: 5.9 g/dL
  gamma-GTP: 1 IU/L
[4]
  TERMINAL_BW: 422.1 g
  APTT: 21.4 s
  Bas: 0%
  Eos: 1%
  Fbg: 227 mg/dL
  Hb: 15 g/dL
  Ht: 42.7%
  Lym: 84%
  MCH: 19.8 pg
  MCHC: 35%
  MCV: 56.4 fL
  Mono: 1.6%
  Neu: 12.4%
  PT: 12.4 s
  Plat: 107.4 x10_4/uL
  RBC: 757.4 x10_4/ul
  Ret: 2.4%
  WBC: 107.5 x10_2/uL
  KIDNEY_L: 1.5 g
  KIDNEY_R: 1.5 g
  KIDNEY_TOTAL: 2.9 g
  LIVER: 17.7 g
  A/G: 1.3
  ALP: 551.8 IU/L
  ALT: 32.8 IU/L
  AST: 54.8 IU/L
  BUN: 16.6 mg/dL
  CRE: 0.5 mg/dL
  Ca: 10.4 mg/dL
  Cl: 102.4 meq/L
  DBIL: 0.1 mg/dL
  GLC: 218 mg/dL
  IP: 6.5 mg/dL
  K: 3.6 meq/L
  LDH: 125 IU/L
  Na: 140 meq/L
  PL: 162.4 mg/dL
  RALB: 3.4 g/dL
  TBIL: 0.2 mg/dL
  TC: 78.4 mg/dL
  TG: 139.2 mg/dL
  TP: 6.1 g/dL
  gamma-GTP: 1.2 IU/L
[5]
  TERMINAL_BW: 245.3 g
  APTT: 18 s
  Bas: 0%
  Eos: 1%
  Fbg: 213.8 mg/dL
  Hb: 13.2 g/dL
  Ht: 37.5%
  Lym: 79.8%
  MCH: 22.4 pg
  MCHC: 35.3%
  MCV: 63.3 fL
  Mono: 2.6%
  Neu: 15.2%
  PT: 12.5 s
  Plat: 122.9 x10_4/uL
  RBC: 592.2 x10_4/ul
  Ret: 6.6%
  WBC: 108.7 x10_2/uL
  KIDNEY_L: 1.1 g
  KIDNEY_R: 1 g
  KIDNEY_TOTAL: 2.1 g
  LIVER: 11.5 g
  A/G: 1.7
  ALP: 964.4 IU/L
  ALT: 33.2 IU/L
  AST: 68 IU/L
  BUN: 13.8 mg/dL
  CRE: 0.4 mg/dL
  Ca: 10.6 mg/dL
  Cl: 102.4 meq/L
  DBIL: 0.096 mg/dL
  GLC: 212.6 mg/dL
  IP: 7.2 mg/dL
  K: 3.9 meq/L
  LDH: 200.2 IU/L
  Na: 140 meq/L
  PL: 134.4 mg/dL
  RALB: 3.4 g/dL
  TBIL: 0.1 mg/dL
  TC: 65.6 mg/dL
  TG: 99.8 mg/dL
  TP: 5.5 g/dL
  gamma-GTP: 1 IU/L
[6]
  TERMINAL_BW: 276.7 g
  APTT: 20.1 s
  Bas: 0%
  Eos: 1%
  Fbg: 228.8 mg/dL
  Hb: 13.9 g/dL
  Ht: 39.5%
  Lym: 79.2%
  MCH: 21.7 pg
  MCHC: 35.2%
  MCV: 61.9 fL
  Mono: 3%
  Neu: 16.4%
  PT: 12.6 s
  Plat: 124.7 x10_4/uL
  RBC: 639.4 x10_4/ul
  Ret: 6%
  WBC: 123.1 x10_2/uL
  KIDNEY_L: 1.1 g
  KIDNEY_R: 1.1 g
  KIDNEY_TOTAL: 2.3 g
  LIVER: 13.3 g
  A/G: 1.6
  ALP: 916.8 IU/L
  ALT: 33.4 IU/L
  AST: 62.4 IU/L
  BUN: 15.8 mg/dL
  CRE: 0.4 mg/dL
  Ca: 11 mg/dL
  Cl: 100.6 meq/L
  DBIL: 0.1 mg/dL
  GLC: 205 mg/dL
  IP: 7.6 mg/dL
  K: 4.3 meq/L
  LDH: 201.2 IU/L
  Na: 140 meq/L
  PL: 156.8 mg/dL
  RALB: 3.5 g/dL
  TBIL: 0.2 mg/dL
  TC: 74.4 mg/dL
  TG: 142.4 mg/dL
  TP: 5.7 g/dL
  gamma-GTP: 1 IU/L
[7]
  TERMINAL_BW: 338.3 g
  APTT: 19.8 s
  Bas: 0%
  Eos: 1%
  Fbg: 223 mg/dL
  Hb: 14.3 g/dL
  Ht: 41.2%
  Lym: 80.6%
  MCH: 21 pg
  MCHC: 34.8%
  MCV: 60.3 fL
  Mono: 2.2%
  Neu: 15%
  PT: 12.2 s
  Plat: 114.6 x10_4/uL
  RBC: 683 x10_4/ul
  Ret: 4.3%
  WBC: 119.2 x10_2/uL
  KIDNEY_L: 1.3 g
  KIDNEY_R: 1.3 g
  KIDNEY_TOTAL: 2.5 g
  LIVER: 15.1 g
  A/G: 1.5
  ALP: 781 IU/L
  ALT: 32.6 IU/L
  AST: 60.4 IU/L
  BUN: 17.6 mg/dL
  CRE: 0.5 mg/dL
  Ca: 10.7 mg/dL
  Cl: 102.6 meq/L
  DBIL: 0.1 mg/dL
  GLC: 208 mg/dL
  IP: 6.5 mg/dL
  K: 3.7 meq/L
  LDH: 209.8 IU/L
  Na: 140.4 meq/L
  PL: 160.6 mg/dL
  RALB: 3.6 g/dL
  TBIL: 0.2 mg/dL
  TC: 75 mg/dL
  TG: 149.6 mg/dL
  TP: 6.1 g/dL
  gamma-GTP: 1 IU/L
[8]
  TERMINAL_BW: 422 g
  APTT: 19.9 s
  Bas: 0%
  Eos: 1%
  Fbg: 220.4 mg/dL
  Hb: 15 g/dL
  Ht: 43.1%
  Lym: 83.8%
  MCH: 19.8 pg
  MCHC: 34.8%
  MCV: 56.8 fL
  Mono: 2.2%
  Neu: 12.2%
  PT: 12.7 s
  Plat: 99.8 x10_4/uL
  RBC: 759 x10_4/ul
  Ret: 2.6%
  WBC: 140.7 x10_2/uL
  KIDNEY_L: 1.5 g
  KIDNEY_R: 1.5 g
  KIDNEY_TOTAL: 2.9 g
  LIVER: 17.2 g
  A/G: 1.3
  ALP: 736.4 IU/L
  ALT: 32.6 IU/L
  AST: 59.2 IU/L
  BUN: 16.6 mg/dL
  CRE: 0.5 mg/dL
  Ca: 10.4 mg/dL
  Cl: 102.4 meq/L
  DBIL: 0.098 mg/dL
  GLC: 224 mg/dL
  IP: 6.3 mg/dL
  K: 3.5 meq/L
  LDH: 137 IU/L
  Na: 139.6 meq/L
  PL: 140.8 mg/dL
  RALB: 3.4 g/dL
  TBIL: 0.2 mg/dL
  TC: 66.2 mg/dL
  TG: 104.6 mg/dL
  TP: 5.9 g/dL
  gamma-GTP: 1 IU/L
